Six molecules from PMC11728000, “Antitumor Activity and Multi-Target Mechanism of Phenolic Schiff Bases Bearing Methanesulfonamide Fragments: Cell Cycle Analysis and a Molecular Modeling Study” (International Journal of Molecular Sciences, 2024) can be followed below.

pIC50: −log10 of the molar value. Some results are limits rather than exact numbers.

One data set has as its system MALME-3M. The experiment in a line: NCI anticancer screening (SRB), Melanoma subpanel. Format: cell-based, human. As to conditions: 10.0 µM in one dose.
A further data set has as its system HOP-92. The experiment in a line: NCI anticancer screening (SRB), Non-Small Cell Lung Cancer subpanel. As to conditions: 10.0 µM in one dose. Format: cell-based, human.
Data set [1] concerns Leukemia subpanel tumor cell lines. Description: NCI anticancer screening, subpanel summary. In kind it is cell-based. As to conditions: leukemia; 10 µM, joint for compounds named together.
Data set [2] concerns NSC Lung Cancer subpanel tumor cell lines. Description: NCI anticancer screening, subpanel summary. Format: cell-based. The note with it: non-small cell lung; 10 µM, joint for compounds named together.
Data set [3] relates to Breast Cancer subpanel tumor cell lines. Description: NCI anticancer screening, subpanel summary. As to conditions: breast; 10 µM, joint for compounds named together. Format: cell-based.
The subject of data set [4] is 59 human cancer cell lines. The experiment in a line: NCI anticancer screening, full panel summary. The note with it: 10 µM single dose; for PCE (positive cytotoxic effect): ratio of cell lines with growth inhibition > 10% to total cell lines; for MG% (mean growth percent): mean over 59 cell lines.
For the next data set, the system named is UO-31. The experiment in a line: NCI anticancer screening (SRB), Renal Cancer subpanel. The note with it: 10.0 µM in one dose. In kind it is cell-based, human.
The next data set concerns A498. The data set is described as above. In kind it is cell-based, human. The note with it: 10.0 µM in one dose.
A further data set relates to UACC-257. Description: NCI anticancer screening (SRB), Melanoma subpanel. Format: cell-based, human. As to conditions: 10.0 µM in one dose.
A further data set relates to CAKI-1. Description: NCI anticancer screening (SRB), Renal Cancer subpanel. Format: cell-based, human. As to conditions: 10.0 µM in one dose.
In the next data set the test system is MCF-7. The experiment in a line: NCI anticancer screening (SRB), Breast Cancer subpanel. Format: cell-based, human. As to conditions: 10.0 µM in one dose.
Another data set concerns SR. Description: NCI anticancer screening (SRB), Leukemia subpanel. Format: cell-based, human. The note with it: 10.0 µM in one dose.
The subject of a further data set is EKVX. Description: NCI anticancer screening (SRB), Non-Small Cell Lung Cancer subpanel. Format: cell-based, human. The note with it: 10.0 µM in one dose.
The next data set deals with U251. The experiment in a line: NCI anticancer screening (SRB), CNS Cancer subpanel. Format: cell-based, human. As to conditions: 10.0 µM in one dose.
A further data set has as its system SF-295. The description is as above. In kind it is cell-based, human. As to conditions: 10.0 µM in one dose.
The test system of another data set is HT29. Description: NCI anticancer screening (SRB), Colon Cancer subpanel. In kind it is cell-based, human. The note with it: 10.0 µM in one dose.
The next data set has as its system HCT-116. Described as above. In kind it is cell-based, human. As to conditions: 10.0 µM in one dose.
For the next data set, the system named is SK-MEL-5. Description: NCI anticancer screening (SRB), Melanoma subpanel. Format: cell-based, human. As to conditions: 10.0 µM in one dose.
A further data set concerns DU-145. The experiment in a line: NCI anticancer screening (SRB), Prostate Cancer subpanel. The note with it: 10.0 µM in one dose. In kind it is cell-based, human.
The next data set deals with MOLT-4. The experiment in a line: NCI anticancer screening (SRB), Leukemia subpanel. Format: cell-based, human. As to conditions: 10.0 µM in one dose.
The subject of the next data set is RPMI-8226. Description: NCI anticancer screening (SRB), Leukemia subpanel. Format: cell-based, human. The note with it: 10.0 µM in one dose.
A further data set has as its system T-47D. The experiment in a line: NCI anticancer screening (SRB), Breast Cancer subpanel. Format: cell-based, human. The note with it: 10.0 µM in one dose.
For a further data set, the system named is MDA-MB-231/ATCC. The description is as above. The note with it: 10.0 µM in one dose. In kind it is cell-based, human.
A further data set relates to LOX IMVI. The experiment in a line: NCI anticancer screening (SRB), Melanoma subpanel. As to conditions: 10.0 µM in one dose. In kind it is cell-based, human.
In another data set the test system is NCI-H226. The experiment in a line: NCI anticancer screening (SRB), Non-Small Cell Lung Cancer subpanel. In kind it is cell-based, human. As to conditions: 10.0 µM in one dose.
A further data set deals with HCT-15. The experiment in a line: NCI anticancer screening (SRB), Colon Cancer subpanel. The note with it: 10.0 µM in one dose. In kind it is cell-based, human.
The next data set deals with SF-539. Description: NCI anticancer screening (SRB), CNS Cancer subpanel. In kind it is cell-based, human. The note with it: 10.0 µM in one dose.
A further data set deals with MDA-MB-468. The experiment in a line: NCI anticancer screening (SRB), Breast Cancer subpanel. Format: cell-based, human. The note with it: 10.0 µM in one dose.
In the next data set the test system is PC-3. Description: NCI anticancer screening (SRB), Prostate Cancer subpanel. In kind it is cell-based, human. As to conditions: 10.0 µM in one dose.
Data set [5] relates to Ovarian Cancer subpanel tumor cell lines. Description: NCI anticancer screening, subpanel summary. As to conditions: ovarian; 10 µM, joint for compounds named together. In kind it is cell-based.
For a further data set, the system named is NCI-H23. Description: NCI anticancer screening (SRB), Non-Small Cell Lung Cancer subpanel. Format: cell-based, human. The note with it: 10.0 µM in one dose.
A short description of the next data set: in vitro. The note with it: human. As to the method: the measured protein at the end of the drug treatment as compared to that at the beginning) indicating a net loss of cells following treatment was calculated from [(Ti − Tz)/Tz] […] = − 50.
Values were calculated for each of these three parameters if the activity level was reached; however, if the effect was not reached or exceeded, that parameter's value was expressed as more or less than the maximum or minimum concentration tested. The log GI50, log TGI, and log LC50 were then determined and defined as the mean of the logs of the individual GI50, TGI, and LC50 values. The lowest values are obtained with the most sensitive cell lines. The compound with log GI50 values −4 and <−4 was declared active.
2. In vitro cytotoxic activity towards normal fibroblast (WI-38) cells Cell Lines were obtained from the American Type Culture Collection; cells were cultured using DMEM (Invitrogen/Life Technologies) supplemented with 10% FBS (Hyclone), ten ug/ml of insulin (Sigma), and 1% penicillin–streptomycin. Cultures were removed from the incubator into a laminar flow hood, reconstituted with 3 mL of balanced salt solution without phenol red and serum, and then added to an amount equal to 10% of the culture medium volume. Cultures returned to the incubator for 2–4 h. After the incubation period, the resulting formazan crystals dissolved […]
medium volume. The absorbance was measured Spectrophotometrically at a wavelength of 570 […]
3. In vitro cyclooxygenase (COX-2) inhibition assay
The ability of the test compounds to inhibit COX-2 was determined using an enzyme immunoassay […]
manufacturer’s instructions.

The subject of data set [6] is MCF-7 cells. The experiment in a line: Annexin V-FITC/PI apoptosis assay. In kind it is cell-based, human. As to conditions: 24 h.
For data set [7], the system named is MCF-7 cells. Description: Cell cycle analysis (PI flow cytometry). As to conditions: 10 μM, 24 h. Format: cell-based, human. As to the method: Apoptosis is the primary mechanism by which potent chemotherapeutic agents destroy cancer cells. […] Flow cytometry measured cell growth in the G0-G1, S, and G2/M cell cycle phases.
Using the MCF-7 cell line, the cell cycle analysis was carried out like our previous investigation. A FACSCalibur flow cytometer was used to analyze the cells after they had been stained with DNA fluorochrome PI (Supplementary Materials). […]
photomultiplier voltage and for compensation setting adjustment to eliminate spectral overlap between the FL1 and the FL2 signals.
6. Cell cycle analysis
Breast carcinoma (MCF-7) cell was seeded at 2 × 10^5 cells/well density and incubated for 24 h in six-well plates. Foetal bovine serum (10%) was added, and the cells were incubated at 37 °C in an atmosphere of 5% CO2. The medium was replaced with 1% (v/v) DMSO containing 10.0 μM of […]
with 70% ethanol, rinsed with phosphate-buffered saline, and then stained with the DNA fluorochrome propidium iodide (PI) for 15 min at 37 °C. Then, samples were analyzed by flow cytometry using a FACSCalibur (Becton Dickinson). The cell cycle distributions were calculated using CellQuest software (Becton Dickinson). […]
(Flow cytometry measures light scatter and fluorescence of single cells or particles in a stream.)

Regarding `CS(=O)(=O)Nc1ccc(C(=O)N/N=C/c2cccc(O)c2)cc1` [Compound 9], the GI% worked out at 12% with MALME-3M, 23% with HOP-92 and 17% in the data set on UO-31. Moreover, the “GI range in subpanel” value came to 10.0% in data set [1], 23.0% in data set [2] and 11.0% in [3]. Besides, the “PCE (positive cytotoxic effect)” value in data set [4] is listed as 3/59.
Turning to `CS(=O)(=O)Nc1ccc(C(=O)N/N=C/c2ccc(O)cc2)cc1` [Compound 10], the GI% with A498 was 15%; with UACC-257, 10%; with CAKI-1, 10%; in the data set with UO-31, 14%. In addition, the “GI range in subpanel” value is on record as 10.0% in data set [1], 23.0% in data set [2] and 11.0% in data set [3]. Also, the “PCE (positive cytotoxic effect)” value in [4] is listed as 4/59.
For the molecule `COc1cc(/C=N/NC(=O)c2ccc(NS(C)(=O)=O)cc2)ccc1O` [Compound 11], the “GI range in subpanel” value in data set [1] stood at 10.0%; in data set [2], 23.0%; in [3] it was 11.0%. Besides, the GI% with CAKI-1 was 16%; with MCF-7 it was 11%; with SR it was 10%; with UO-31, 10%. In data set [4], the “PCE (positive cytotoxic effect)” value is 4/59.
Consider `Cc1ccc(NC(=O)c2ccc(CN3CCN(C)CC3)cc2)cc1Nc1nccc(-c2cccnc2)n1` [Imatinib, imatinib], for which the GI% in the data set on A498 is given as 14%; in the data set on EKVX, 16%; with U251, 11%; in the data set with SF-295, 15%; in the data set with HT29, 47%; in the data set with HCT-116 it was 19%. The GI% with SK-MEL-5 is recorded as 22%; with DU-145 it was 14%; with MOLT-4, 18%; in the data set on RPMI-8226, 13%; in the data set on T-47D, 19%; in the data set on MDA-MB-231/ATCC it was 11%. Moreover, the GI% came out at 12% with LOX IMVI; 11% with NCI-H226; 12% in the data set on HCT-15; 25% in the data set with SF-539; 15% with SR; 29% in the data set on MDA-MB-468. Further, the GI% is recorded as 11% in the data set with PC-3 and 17% in the data set with NCI-H23. Besides, the “GI range in subpanel” value in [5] is reported as ≥ 10.0%. Further, the “MG% (mean growth percent)” value in data set [4] is listed as 92.62%; in data set [4] (listed as imatinib) it was 92.6%.
Broadly, the pIC50 is the IC50 on a negative log10 scale, so that one unit is a factor of ten. Regarding `CS(=O)(=O)CCNCc1ccc(-c2ccc3ncnc(Nc4ccc(OCc5cccc(F)c5)c(Cl)c4)c3c2)o1` [Lapatinib, lapatinib], the pIC50 in the data set “in vitro” is 4.49.
As for `CN[C@@H]1C[C@H]2O[C@@](C)([C@@H]1OC)n1c3ccccc3c3c4c(c5c6ccccc6n2c5c31)C(=O)NC4` [Staurosporine, staurosporine], the Necrosis in the data set on MCF-7 cells [6] stood at 4.04%. Besides, the “Total Apoptosis” value in the data set with MCF-7 cells [6] (annexin V-FITC/PI) is given as 34.39%. Moreover, in the data set with MCF-7 cells [6] (lower-right quadrant), the “Early Apoptosis” value was 8.36%. For the same molecule, the “Late Apoptosis” value in the data set on MCF-7 cells [6] (upper-right quadrant) was 21.99%. Further, in the data set with MCF-7 cells [7], the “%G0–G1” value is recorded as 65.74%, the “%G2-M” value is listed as 3.07%, the “%S” value is recorded as 31.19% and the “Comment (cell cycle arrest phase)” value is reported as “Growth arrest@G1/S”.
